# Laboratory results from patent US20260258064A1 (SIRONAX LTD., priority 2023, published 2026).
# Biological target: T1, SARM1 (50-724) (Homo sapiens, UniProt Q6SZW1)
# T1 construct: Purified SARM1 (50-724) with a final concentration of 2 nM was pre-incubated with a test compound
# T1 sequence (Q6SZW1 50-724): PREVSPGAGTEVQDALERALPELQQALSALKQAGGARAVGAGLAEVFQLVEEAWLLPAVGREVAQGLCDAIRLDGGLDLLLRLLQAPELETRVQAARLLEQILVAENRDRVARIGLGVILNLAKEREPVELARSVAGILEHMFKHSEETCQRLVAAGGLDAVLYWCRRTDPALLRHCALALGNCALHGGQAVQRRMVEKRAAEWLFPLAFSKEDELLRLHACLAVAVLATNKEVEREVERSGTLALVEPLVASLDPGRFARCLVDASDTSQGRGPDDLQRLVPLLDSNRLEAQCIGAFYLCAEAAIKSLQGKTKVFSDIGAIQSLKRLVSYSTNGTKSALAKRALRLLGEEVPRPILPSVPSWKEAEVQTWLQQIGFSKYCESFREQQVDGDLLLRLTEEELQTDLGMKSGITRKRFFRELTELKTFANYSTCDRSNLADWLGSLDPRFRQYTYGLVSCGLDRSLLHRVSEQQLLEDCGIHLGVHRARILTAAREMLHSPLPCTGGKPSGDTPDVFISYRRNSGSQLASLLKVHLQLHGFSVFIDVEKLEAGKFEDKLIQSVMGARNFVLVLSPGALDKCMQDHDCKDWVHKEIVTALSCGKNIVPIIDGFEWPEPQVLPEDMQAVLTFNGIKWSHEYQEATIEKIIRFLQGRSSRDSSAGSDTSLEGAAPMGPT
# Experiment: SARM1 (50-724) enzymatic assay (LC-MS/MS)
# Format: biochemical
# Details: Purified SARM1 (50-724) 2 nM, NMN as activator, NAD+ as substrate, 1 h at room temperature, read-out: IC50 (SARM1 inhibitory activity)
# Method: An enzymatic assay was performed in a 384-well plate using Dulbecco's phosphate-buffered saline (PBS) as the reaction buffer. Purified SARM1 (50-724) with a final concentration of 2 nM was pre-incubated with a test compound at […] final assay concentration for 15 min at room temperature. The reaction was initiated by adding a mixture of […] nicotinamide mononucleotide (NMN) as activator and […] NAD^+ as substrate. After 1 h of incubation at room temperature, the reaction was terminated with 10 times volume of 70% acetonitrile, and then centrifuged at 3800 rpm for 10 min. The samples were analyzed using LC-MS/MS after diluted to a proper concentration by 10 mM ammonium acetate (pH 9.75).
# In Table 2, activity is provided as follows: A: IC50≤100 nM; B: 100 nM<IC50≤500 nM; C: 500 nM<IC50≤1000 nM; D: IC50>1000 nM.
row,Compound,IC50 [nM]
1,"CS(=O)(=O)CCc1nnc(-c2nc3cc(C(F)(F)F)ccc3[nH]2)n1-c1cccc(Cl)c1Cl [Compound 138, 2-(4-(2,3-dichlorophenyl)-5-(2-(methylsulfonyl)ethyl)-4H-1,2,4-triazol-3-yl)-5-(trifluoromethyl)-1H-benzo[d]imidazole]",≤ 100
2,"OCCOc1cc(-n2cnnc2-c2nc3cc(C(F)(F)F)ccc3[nH]2)c(OC(F)(F)F)cn1 [Compound 241, 2-((5-(trifluoromethoxy)-4-(3-(5-(trifluoromethyl)-1H-benzo[d]imidazol-2-yl)-4H-1,2,4-triazol-4-yl)pyridin-2-yl)oxy)ethan-1-ol]",≤ 100
3,"COc1cc(-n2cnnc2-c2nc3cc(C(F)(F)F)ccc3[nH]2)c(OC(F)(F)F)cn1 [Compound 210, 2-(4-(2-methoxy-5-(trifluoromethoxy)pyridin-4-yl)-4H-1,2,4-triazol-3-yl)-5-(trifluoromethyl)-1H-benzo[d]imidazole]",≤ 100
4,"C[S+]([O-])c1ccc2[nH]c(-c3nncn3-c3cccc(Cl)c3Cl)nc2c1 (stereo not shown) [Compound 153, 2-(4-(2,3-dichlorophenyl)-4H-1,2,4-triazol-3-yl)-5-(methylsulfinyl)-1H-benzo[d]imidazole]",100 to 500
5,"CS(=O)(=O)c1c(Br)ccc2[nH]c(-c3nncn3-c3cccc(Cl)c3Cl)nc12 [Example 95, 5-bromo-2-(4-(2,3-dichlorophenyl)-4H-1,2,4-triazol-3-yl)-4-(methylsulfonyl)-1H-benzo[d]imidazole]",> 1000
6,"O=c1ccc(C(F)(F)F)c(-n2cnnc2-c2nc3cc(C(F)(F)F)ccc3[nH]2)[nH]1 [Compound 280, 5-(trifluoromethyl)-6-(3-(5-(trifluoromethyl)-1H-benzo[d]imidazol-2-yl)-4H-1,2,4-triazol-4-yl)pyridin-2(1H)-one]",≤ 100
7,"FC(F)(F)c1ccc2[nH]c(C3COCCN3c3cccc(Cl)c3Cl)nc2c1 (stereo not shown) [Compound 363, 4-(2,3-dichlorophenyl)-3-[5-(trifluoromethyl)-1H-benzimidazol-2-yl]morpholine]",500 to 1000
8,"FC(F)(F)c1ccc2[nH]c(C3CSCCN3c3ccccc3)nc2c1 (stereo not shown) [Compound 361, 4-phenyl-3-[5-(trifluoromethyl)-1H-benzimidazol-2-yl]thiomorpholine]",> 1000
9,CC(C)(O)c1ccc2[nH]c(-c3nnccc3-c3cnccc3C(F)(F)F)nc2c1 [Compound 323],≤ 100
10,"Cc1ccc2[nH]c(-n3[nH]c(=O)nc3-c3cccc(Cl)c3Cl)nc2c1 [Compound 26, 5-(2,3-dichlorophenyl)-1-(5-methyl-1H-benzo[d]imidazol-2-yl)-1,2-dihydro-3H-1,2,4-triazol-3-one]",> 1000
11,"Cc1ccc2[nH]c(-c3cc(C(N)=O)cn3C3CCCC3)nc2c1 [Compound 20, 1-cyclopentyl-5-(5-methyl-1H-benzo[d]imidazol-2-yl)-1H-pyrrole-3-carboxamide]",500 to 1000
12,"Cn1cc(-c2cccc(Cl)c2Cl)c(-c2nc3cc(Cl)c(Cl)cc3[nH]2)cc1=O [Compound 188, 4-(5,6-dichloro-1H-benzo[d]imidazol-2-yl)-5-(2,3-dichlorophenyl)-1-methylpyridin-2(1H)-one]",100 to 500
13,FC(F)(F)Oc1cnccc1-n1cnnc1-c1nc2cc(C(F)(F)F)ccc2[nH]1 [Compound 190],≤ 100
14,"CS(=O)(=O)Cc1nnc(-c2nc3cc(C(F)(F)F)cc(F)c3[nH]2)n1-c1cccc(F)c1Cl [Compound 182, 2-(4-(2-Chloro-3-fluorophenyl)-5-((methylsulfonyl)methyl)-4H-1,2,4-triazol-3-yl)-7-fluoro-5-(trifluoromethyl)-1H-benzo[d]imidazole]",≤ 100
15,Cc1ccnc(-n2cnnc2-c2nc3cc(C(F)(F)F)ccc3[nH]2)c1Cl [Example 66],≤ 100
16,"Fc1cc(C2CC2)cc2nc(-c3nncn3-c3cnccc3C(F)(F)F)[nH]c12 [Compound 270, 5-cyclopropyl-7-fluoro-2-(4-(4-(trifluoromethyl)pyridin-3-yl)-4H-1,2,4-triazol-3-yl)-1H-benzo[d]imidazole]",≤ 100
17,"Fc1cc(C2(F)CC2)cc2nc(-c3nncn3-c3cnccc3C(F)(F)F)[nH]c12 [Compound 285, 7-fluoro-5-(1-fluorocyclopropyl)-2-(4-(4-(trifluoromethyl)pyridin-3-yl)-4H-1,2,4-triazol-3-yl)-1H-benzo[d]imidazole]",≤ 100

row,Compound,IC50 [nM]
1,CC(CN(C)C)c1ccc2[nH]c(-c3nncn3-c3cnccc3C(F)(F)F)nc2c1 (stereo not shown) [Compound 365],> 1000
2,"FC(F)(F)c1ccc2[nH]c(-c3nnccc3N3CCOCC3)nc2c1 [Compound 457, 4-(3-(5-(trifluoromethyl)-1H-benzo[d]imidazol-2-yl)pyridazin-4-yl)morpholine]",500 to 1000
3,"CC1(c2ccc3[nH]c(-c4nncn4-c4cccc(Cl)c4Cl)nc3c2)CCO1 (stereo not shown) [Compound 154, 2-(4-(2,3-dichlorophenyl)-4H-1,2,4-triazol-3-yl)-5-(2-methyloxetan-2-yl)-1H-benzo[d]imidazole]",≤ 100
4,"NC(=O)C1(c2ccc3[nH]c(-c4nncn4-c4ccc(F)c(F)c4Cl)nc3c2)CC1 [Compound 171, 1-(2-(4-(2-chloro-3,4-difluorophenyl)-4H-1,2,4-triazol-3-yl)-1H-benzo[d]imidazol-5-yl)cyclopropane-1-carboxamide]",≤ 100
5,OCC1(c2ccc3[nH]c(-c4nncn4-c4cccc(Cl)c4Cl)nc3c2)CCC1 [Example 130],≤ 100
6,"FC(F)(F)c1ccc2[nH]c(-c3oncc3-c3cccc(Cl)c3Cl)nc2c1 [Compound 273, 4-(2,3-dichlorophenyl)-5-(5-(trifluoromethyl)-1H-benzo[d]imidazol-2-yl)isoxazole]",100 to 500
7,"Cn1ncc(C(F)(F)F)c1-n1cnnc1-c1nc2cc(C(F)(F)F)ccc2[nH]1 [Compound 257, 2-(4-(1-methyl-4-(trifluoromethyl)-1H-pyrazol-5-yl)-4H-1,2,4-triazol-3-yl)-5-(trifluoromethyl)-1H-benzo[d]imidazole]",≤ 100
8,"Cc1cnc(-c2cc(F)c3[nH]c(-c4nncn4-c4cnccc4C(F)(F)F)nc3c2)s1 [Compound 409, 2-[7-fluoro-2-[4-[4-(trifluoromethyl)-3-pyridyl]-1,2,4-triazol-3-yl]-1H-benzimidazol-5-yl]-5-methyl-thiazole]",≤ 100
9,"CN(CCC(N)=O)c1cc(F)c2[nH]c(-c3nncn3-c3cnccc3C(F)(F)F)nc2c1 [Compound 450, 3-((4-fluoro-2-(4-(4-(trifluoromethyl)pyridin-3-yl)-4H-1,2,4-triazol-3-yl)-1H-benzo[d]imidazol-6-yl)(methyl)amino)propanamide]",≤ 100
10,"N#Cc1c(-n2c(-c3cccc(Cl)c3Cl)n[nH]c2=O)[nH]c2ccc(C(F)(F)F)cc12 [Compound 41, 2-(3-(2,3-dichlorophenyl)-5-oxo-1,5-dihydro-4H-1,2,4-triazol-4-yl)-5-(trifluoromethyl)-1H-indole-3-carbonitrile]",> 1000
11,"Fc1cc(OC(F)F)cc2nc(-c3nncn3-c3cnccc3C(F)(F)F)[nH]c12 [Compound 293, 5-(difluoromethoxy)-7-fluoro-2-(4-(4-(trifluoromethyl)pyridin-3-yl)-4H-1,2,4-triazol-3-yl)-1H-benzo[d]imidazole]",≤ 100
12,"FC1(F)CN(Cc2nnc(-c3nc4cc(C(F)(F)F)ccc4[nH]3)n2-c2cccc(Cl)c2Cl)C1 [Compound 157, 2-(4-(2,3-dichlorophenyl)-5-((3,3-difluoroazetidin-1-yl)methyl)-4H-1,2,4-triazol-3-yl)-5-(trifluoromethyl)-1H-benzo[d]imidazole]",≤ 100
13,"CC(F)(F)c1cc(F)c2[nH]c(-c3nncn3-c3cnccc3C(F)(F)F)nc2c1 [Compound 468, 6-(1,1-difluoroethyl)-4-fluoro-2-(4-(4-(trifluoromethyl)pyridin-3-yl)-4H-1,2,4-triazol-3-yl)-1H-benzo[d]imidazole]",≤ 100
14,FC(F)(F)c1ccc2[nH]c(-c3cccn3-c3nccnc3C(F)(F)F)nc2c1 [Compound 313],500 to 1000
15,"Cc1ccc2[nH]c(-c3[nH]nnc3C3CCCC3)nc2c1 [Compound 33, 2-(4-cyclopentyl-1H-1,2,3-triazol-5-yl)-5-methyl-1H-benzo[d]imidazole]",> 1000
16,FC(F)(F)c1ccc2[nH]c(-c3nccn3-c3cccc(Cl)c3Cl)nc2c1 [Example 57],100 to 500
17,FC(F)(F)c1ccc2[nH]c(-c3nncn3-c3ccncc3OC3CC3)nc2c1 [Compound 228],> 1000
